Active and inactive are the calls of the source. No rule for the calls is given here.
The compounds below were run against Small ubiquitin-related modifier 1 (Homo sapiens) (UniProt P63165) (assay: inhibitors of SUMO1 partner interactions, dose response, biochemical, FRET (AID 624383)). Settings: SUMO1 protein-protein interaction, in vitro.
Small ubiquitin-related modifier 1 (Homo sapiens), sequence (P63165 whole entry, looked up): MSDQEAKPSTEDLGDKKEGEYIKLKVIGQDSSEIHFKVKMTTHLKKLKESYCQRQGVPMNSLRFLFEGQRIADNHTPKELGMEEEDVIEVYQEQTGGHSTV

| SMILES | IC50 |
| --- | --- |
| C=Cc1c(C)c2cc3[nH]c(cc4nc(cc5nc(cc1[nH]2)C(C)=C5CCC(=O)O)C(CCC(=O)O)=C4C)c(C)c3C=C | 1.81 µM |
| CCN(CC)P(=O)(NC(=O)C(Cl)(Cl)Cl)N(CC)CC.[Cl-].[Cl-].[Cl-].[Nd+3] | 0.601 µM |
| C[c-]1[c-](C)[c-](C)[c-](C)[c-]1C.[Fe].c1cc2nccc(N3CCCC3)[c-]2c1 (stereo not drawn) | inactive |
